Source: patent publication US20160022168A1, “BRAIN STATE DEPENDENT THERAPY FOR IMPROVED NEURAL TRAINING AND REHABILITATION” (UNIVERSITY OF LETHBRIDGE, priority 2014, published 2016)

Assays:
[1] = test system: auditory cortex; assay: Population recordings in auditory cortex (A1) before, during and after tone stimulation in urethane-anesthetised rats; type: in vivo, Long Evans rats; details: for brain state in auditory cortex: urethane-anesthetised rats, carbachol infused into posterior hypothalamic nucleus, amphetamine 1 mg/kg IP, MK801 0.1 mg/kg i.p.
Protocol: (§1) Rats were then placed in a stereotaxic frame, and a window in the skull was prepared over primary somatosensory cortex (S1) hindlimb area (AP −1 mm; ML 2 mm; DV 1.5 mm) For auditory experiments, 8 Long Evans rats (250-350 g) were anesthetised with urethane (1.5 g/kg IP) and placed in a nasal restraint that left the ears free. A window in the skull (2×3 mm) was prepared over the primary auditory cortex. For all recordings, Applicant used silicon probes consisting of eight shanks (200 μm shank separation); each shank had 4 recording sites in a tetrode configuration (20 μm separation between sites, 160 μm^2 site area; 1-3 MOhm impedance; NeuroNexus Technologies).
To ensure that our results are not affected by differences in firing rates among animals, Applicant down sampled the multi-unit activity of all animals to match the number of spikes in the sample with the lowest firing rate.

[2] = test system: primary somatosensory cortex (S1); assay: Population recordings in primary somatosensory cortex (S1) before, during and after tactile stimulation in urethane-anesthetised rats; type: in vivo, Long Evans rats; details: for firing rate reactivation (explained variance) during the stimulation period: 1 sec intervals of spontaneous activity, FIG. 4C; for Euclidian distance between firing rate correlation matrices, evoked vs following spontaneous compared with evoked vs preceding spontaneous: FIG. 4B, paired t-test; for mean corr. coef. change of latency correlation (spontaneous vs evoked) after tactile stimulation: latency from cross-correlogram with MUA, FIG. 2E; for mean corr. coef. change of latency correlation (spontaneous vs evoked) after tactile stimulation / mean corr. coef. change of latency correlation from pairwise correlograms: mean ± SEM; for mean corr. coef. change of latency correlation from pairwise correlograms: pair-wise cross-correlograms, FIG. 2E white bars; for latency correlation after vs before stimulation (averaged values): t-test
Protocol: as §1
The time course of the experimental protocol is illustrated in FIG. 1A and FIG. 1B. […] Each recording period consisted of 10 min of spontaneous activity, followed by 20 minutes of tactile stimulation, and then another 10 min of spontaneous activity. The tactile stimulation consisted of 600 repetitions of 1 second stimulation at 20 Hz followed by 1 second without stimulation. The tactile stimulator consisted of a plastic rod attached at one end to a membrane of a speaker controlled by a computer. The other end of the rod was placed in contact with left hind limb.
In order to quantify temporal relations among neurons, Applicant calculated the mean spike latency as described previously. Briefly, for each neuron, latency is defined as the center of mass of a cross-correlogram of that neuron with the summed activity of all other simultaneously recorded cells (MUA), within a time window of 100 ms (FIG. 2A). Before calculating the center of mass, cross-correlograms were smoothed with a Gaussian kernel with SD=5 ms and normalized between 0 and 1 to discard effects of baseline activity. Thus this measure estimates the time when the corresponding neuron is most likely to fire with respect to the population activity. In addition to analysis of cross-correlograms between single neurons and multiunit activity as described above, Applicant also calculated latency from pair-wise cross-correlograms to look at temporal relations between neurons in more detail (FIG. 2E white bars).
Extracellular signals were high-pass filtered (0.1 Hz) and amplified (1,000 times) using a 64-channel amplifier (Neuralynx). Signals were then digitized at 32 kHz. Units were identified and isolated by a semiautomatic cluster cutting algorithm (available at: klustakwik.sourceforge.net), followed by manual clustering (MClust).
To ensure that our results are not affected by differences in firing rates among animals, Applicant down sampled the multi-unit activity of all animals to match the number of spikes in the sample with the lowest firing rate. […]
For this analysis Applicant only included neurons with a firing rate above 0.6 Hz.

Compound	replay activity (reverberation of stimulus-evoked patterns) ([1]; after NMDA receptor antagonist application)	brain state in auditory cortex [1]	firing rate reactivation (explained variance) during the stimulation period ([2]; S1)	Euclidian distance between firing rate correlation matrices, evoked vs following spontaneous compared with evoked vs preceding spontaneous ([2]; S1)	mean corr. coef. change of latency correlation (spontaneous vs evoked) after tactile stimulation ([2]; S1)	mean corr. coef. change of latency correlation from pairwise correlograms ([2]; S1)	latency correlation after vs before stimulation (averaged values) ([2]; S1)	brain state (cortical activity, LFP and unit activity) in S1 ([2]; urethane 1.5 g/kg IP, amphetamine 1 mg/kg injected in addition)	mean slope of latency correlation after stimulation ceased ([2]; S1, after stimulation FIG. 2G, ± SD)	mean slope of latency correlation, pre-stimulus spontaneous periods ([2]; S1, first three points FIG. 2G, ± SD)	mean slope of latency correlation during stimulation ([2]; S1, three points during stimulation FIG. 2G, ± SD)	duration of desynchronized state after injection ([2]; urethane-anesthetised rats, amphetamine 1 mg/kg)
C[C@]12N[C@H](Cc3ccccc31)c1ccccc12 [MK801]	suppressed											
C[N+](C)(C)CCOC(N)=O [carbachol]		desynchronization of the brain state										
CCOC(N)=O [urethane]		synchronized brain state	significant firing rate reactivation	non-significant increase in similarity	−0.03±0.06	0.049±0.025	not significantly different	synchronized state				
d-Methamphetamine HCl			significant firing rate reactivation	smaller	0.31±0.062	0.098±0.023	significantly higher after stimulation		−0.07±0.08	−0.01±0.1	0.11±0.12	at least 30 minutes
